Test results: ChEMBL document CHEMBL3396992, “Synthesis and biological evaluation of pyrazolylthiazole carboxylic acids as potent anti-inflammatory-antimicrobial agents” (2015)

Assays:
Type in all cases: functional
Conditions in all cases: route intraperitoneal
Rattus norvegicus [1] = assay: Antiinflammatory activity against carrageenan-induced paw edema male Wistar albino rat at 10 mg/kg, ip administered 30 mins prior to carrageenan-challenge measured after 3 hrs relative to control
Rattus norvegicus [2] = assay: Antiinflammatory activity against carrageenan-induced paw edema male Wistar albino rat assessed as edema volume at 10 mg/kg, ip administered 30 mins prior to carrageenan-challenge measured after 3 hrs (reference value: 1.73 +/- 0.09 mL)
Rattus norvegicus [3] = assay: Antiinflammatory activity against carrageenan-induced paw edema male Wistar albino rat at 10 mg/kg, ip administered 30 mins prior to carrageenan-challenge measured after 4 hrs relative to control
Rattus norvegicus [4] = assay: Antiinflammatory activity against carrageenan-induced paw edema male Wistar albino rat assessed as edema volume at 10 mg/kg, ip administered 30 mins prior to carrageenan-challenge measured after 1 hr (reference value: 1.11 +/- 0.12 mL)
Rattus norvegicus [5] = assay: Antiinflammatory activity against carrageenan-induced paw edema male Wistar albino rat assessed as edema volume at 10 mg/kg, ip administered 30 mins prior to carrageenan-challenge measured after 4 hrs (reference value: 1.88 +/- 0.20 mL)
Rattus norvegicus [6] = assay: Antiinflammatory activity against carrageenan-induced paw edema male Wistar albino rat at 10 mg/kg, ip administered 30 mins prior to carrageenan-challenge measured after 1 hr relative to control
Rattus norvegicus [7] = assay: Antiinflammatory activity against carrageenan-induced paw edema male Wistar albino rat at 10 mg/kg, ip administered 30 mins prior to carrageenan-challenge measured after 2 hrs relative to control
Rattus norvegicus [8] = assay: Antiinflammatory activity against carrageenan-induced paw edema male Wistar albino rat assessed as edema volume at 10 mg/kg, ip administered 30 mins prior to carrageenan-challenge measured after 2 hrs (reference value: 1.21 +/- 0.16 mL)

Compound: COc1ccc2c(c1)c(CC(=O)O)c(C)n2C(=O)c1ccc(Cl)cc1 [INDOMETHACIN]
- Activity (Rattus norvegicus [1]): 91.32%
- Activity (Rattus norvegicus [2]): 0.15 mL
- Activity (Rattus norvegicus [3]): 91.48%
- Activity (Rattus norvegicus [4]): 0.07 mL
- Activity (Rattus norvegicus [5]): 0.16 mL
- Activity (Rattus norvegicus [6]): 93.69%
- Activity (Rattus norvegicus [7]): 88.42%
- Activity (Rattus norvegicus [8]): 0.14 mL
